By Km is commonly meant the concentration of substrate that gives half-maximal velocity.

The source of these data is patent publication US5156962A, “Process for producing carboxylic acid esters using carboxyesterase and an anhydride in organic solvent” (Takeda Chemical Industries, Ltd., priority 1986, dated 1992).

Structures are written as SMILES.

Data set [1] can be described thus: Solubility of the crystals in solvents. In kind it is physicochemical.
Data set [2] concerns PEG-modified esterase (carboxyl esterase). In words: Acetylation of lankacidin C to lankacidin A by PEG-modified esterase with different acetyl group donors (Lineweaver-Burk analysis). It counts as biochemical, Streptomyces rochei var. volubilis. To be noted: acetyl group donor as substrate, 11 mM lankacidin C in methyl isobutyl ketone, 37° C., least-squares method from Table 2; for Vmax: lankacidin A formed. The method, then: 2 ml of a solution of 11 mM concentrations of lankacidin C and 50 mM concentrations of acetic anhydride in methyl isobutyl ketone was put in a 20 ml test tube with stopper, to which was added 0.3 ml of a solution of PEG-modified esterase in 0.2M tris(hydroxymethyl) aminomethane-maleic acid buffer (pH 7.0), the concentration of PEG-modified esterase of which was 12 mg per ml, followed by shaking with shaking apparatus (80 spm) at 37° C.
By high-performance liquid chromatography (hereinafter referred to briefly as HPLC method) as described below, the amount of lankacidin A formed was measured at the time shown in Table 1.
By changing the concentration of acetyl group donor to those shown of Table 2, with the reaction time being 20 min., the same procedure as in Example 1 was conducted.
By using Lineweaver-Burk's equation of the formula 2 [Biochemical Dictionary, first edition, page 1314 (1984), Tokyokagakudozin Ltd.] derived by modifying the Michaelis-Menten equation of formula 1 [Op Cit. page 1239], the reaction using acetic anhydride as an acetyl group donor was compared with that using ethyl acetate as acetyl group donor. [formula]
By putting values of the concentration of acetyl group donor shown in Table 2 in the place of [S]o, and values of the amount of lankacidin A formed shown in Table 2 in the place of .nu., values of Km and Vmax were calculated by means of the least-squares method.

Take `CCC(=O)OC1C=CC2OC2CC(C)OC(=O)CC(OC(=O)CC)C(OC)C(OC2OC(C)C(OC3CC(C)(O)C(OC(=O)CC)C(C)O3)C(N(C)C)C2O)C(CC=O)CC1C` (centres unmarked) [9-propionyl maridomycin III]: the Solubility in acetone entry in data set [1] (acetone) is reported as “readily soluble”. In addition, the Solubility in chloroform entry in data set [1] (chloroform) was “relatively soluble”. Moreover, the Solubility in ethanol entry in data set [1] (ethanol) was “readily soluble”. For the same compound, the Solubility in methanol result in data set [1] (methanol) is given as “readily soluble”. The Solubility in water result in data set [1] (water) is “hardly soluble”.

Take `CC(=O)OC(C)=O` [Acetic anhydride, acetic anhydride]: in data set [2] (reaction time 20 min.), the Km is 7.69 mM. Moreover, in data set [2], the Vmax amounted to 6.59 mM/20 min.

Turning to `CCOC(C)=O` [Ethyl acetate, ethyl acetate], in data set [2], the Vmax is listed as 5.40 mM/20 min.
